One block for each molecule: values may come before it.
Experiments:
[1] = system: colistin-resistant K. pneumoniae clinical isolates; assay: Checkerboard assay for synergy testing; assay type: cell-based, Klebsiella pneumoniae
Method: (§1) The synergistic activities of various two-antimicrobial combinations against colistin-resistant E. coli and K. pneumoniae isolates were evaluated using the checkerboard assay, which was performed in 96-well plates. […] Two-fold serial dilutions of peptides and antibiotics were independently prepared in CAMHB. Afterward, a mixture of different concentrations of the antibiotics and peptides was added to the wells of the microplates. Antibiotics and peptides were also dispended alone in the first row and the first column, respectively. Bacterial inoculum was added to the 96-well plate to achieve a final concentration of 5 × 10^5 CFU/mL. Then, plates were incubated at 37 °C for 20–24 h. MICs were recorded as the minimum concentration of antimicrobial agents without bacterial growth. The interaction between the antimicrobials was determined by calculating the fractional inhibitory concentration index (FICI) according to the formula: FICI = FIC(drug A) + FIC(drug B), where FIC = the MIC of the drug when in the combination/MIC of drug tested individually.

[2] = system: colistin-resistant E. coli clinical isolates; assay: Checkerboard assay for synergy testing; assay type: cell-based, Escherichia coli; details: checkerboard Ceftazedime+BP203
Method: as §1

[3] = checkerboard BP203 x meropenem, KP-01
[4] = checkerboard BP203 x meropenem, KP-02
[5] = checkerboard BP203 x meropenem, KP-03
[6] = checkerboard BP203 x meropenem, KP-04
[7] = checkerboard BP203 x meropenem, KP-05
[8] = checkerboard BP203 x meropenem, KP-06
[9] = checkerboard BP203 x meropenem, KP-08
[10] = checkerboard BP203 x meropenem, KP-09
[11] = checkerboard BP203 x meropenem, KP-10
[12] = checkerboard MAP-0403 J-2 x meropenem, KP-01
[13] = checkerboard MAP-0403 J-2 x meropenem, KP-02
[14] = checkerboard MAP-0403 J-2 x meropenem, KP-03
[15] = checkerboard MAP-0403 J-2 x meropenem, KP-05
[16] = checkerboard MAP-0403 J-2 x meropenem, KP-06
[17] = checkerboard MAP-0403 J-2 x meropenem, KP-07
[18] = checkerboard MAP-0403 J-2 x meropenem, KP-08
[19] = checkerboard MAP-0403 J-2 x meropenem, KP-09
[20] = checkerboard MAP-0403 J-2 x meropenem, KP-10
[21] = isolate KP-01, checkerboard Ceftazedime+BP203
[22] = isolate KP-02, checkerboard Ceftazedime+BP203
[23] = isolate KP-03, checkerboard Ceftazedime+BP203
[24] = isolate KP-04, checkerboard Ceftazedime+BP203
[25] = isolate KP-05, checkerboard Ceftazedime+BP203
[26] = isolate KP-06, checkerboard Ceftazedime+BP203
[27] = isolate KP-07, checkerboard Ceftazedime+BP203
[28] = isolate KP-08, checkerboard Ceftazedime+BP203
[29] = isolate KP-09, checkerboard Ceftazedime+BP203
[30] = isolate KP-10, checkerboard Ceftazedime+BP203

MIC alone [1, 3]: 8 µg/mL | MIC combination [1, 3]: 2 µg/mL | MIC alone [1, 4]: 16 µg/mL | MIC combination [1, 4]: 4 µg/mL | MIC alone [1, 5]: 64 µg/mL | MIC combination [1, 5]: 16 µg/mL | MIC alone [1, 6]: 256 µg/mL | MIC combination [1, 6]: 64 µg/mL | MIC alone [1, 7]: 64 µg/mL | MIC combination [1, 7]: 16 µg/mL | MIC alone [1, 8]: 16 µg/mL | MIC combination [1, 8]: 4 µg/mL | MIC combination ([1]; checkerboard BP203 x meropenem, KP-07): 32 µg/mL | MIC alone [1, 9]: 64 µg/mL | MIC combination [1, 9]: 8 µg/mL | MIC alone [1, 10]: 64 µg/mL | MIC combination [1, 10]: 16 µg/mL | MIC alone [1, 11]: 16 µg/mL | MIC combination [1, 11]: 4 µg/mL | MIC alone [1, 12]: 4 µg/mL | MIC combination [1, 12]: 2 µg/mL | MIC alone [1, 13]: 8 µg/mL | MIC combination [1, 13]: 8 µg/mL | MIC alone [1, 14]: 32 µg/mL | MIC combination [1, 14]: 0.25 µg/mL | MIC alone [1, 15]: 32 µg/mL | MIC combination [1, 15]: 32 µg/mL | MIC alone [1, 16]: 8 µg/mL | MIC combination [1, 16]: 4 µg/mL | MIC alone [1, 17]: 64 µg/mL | MIC combination [1, 17]: 64 µg/mL | MIC alone [1, 18]: 64 µg/mL | MIC combination [1, 18]: 64 µg/mL | MIC alone [1, 19]: 64 µg/mL | MIC combination [1, 19]: 32 µg/mL | MIC alone [1, 20]: 16 µg/mL | MIC combination [1, 20]: 8 µg/mL
SMILES: C[C@@H](O)[C@H]1C(=O)N2C(C(=O)O)=C(S[C@@H]3CN[C@H](C(=O)N(C)C)C3)[C@H](C)[C@H]12 [Meropenem, meropenem]

SMILES: CC(C)(O/N=C(\C(=O)N[C@@H]1C(=O)N2C(C(=O)[O-])=C(C[n+]3ccccc3)CS[C@H]12)c1csc(N)n1)C(=O)O [Ceftazedime]
MIC alone ([2]; isolate EC-01): 8 µg/mL | MIC combination ([2]; isolate EC-01): 4 µg/mL | MIC alone ([2]; isolate EC-02): 16 µg/mL | MIC combination ([2]; isolate EC-02): 4 µg/mL | MIC alone ([2]; isolate EC-03): 32 µg/mL | MIC combination ([2]; isolate EC-03): 8 µg/mL | MIC alone ([2]; isolate EC-04): 32 µg/mL | MIC combination ([2]; isolate EC-04): 8 µg/mL | MIC alone ([2]; isolate EC-05): 1 µg/mL | MIC combination ([2]; isolate EC-05): 0.25 µg/mL | MIC alone ([2]; isolate EC-06): 16 µg/mL | MIC combination ([2]; isolate EC-06): 0.5 µg/mL | MIC alone ([2]; isolate EC-07): 16 µg/mL | MIC combination ([2]; isolate EC-07): 8 µg/mL | MIC alone ([2]; isolate EC-08): 0.5 µg/mL | MIC combination ([2]; isolate EC-08): 0.25 µg/mL | MIC alone ([2]; isolate EC-09): 16 µg/mL | MIC combination ([2]; isolate EC-09): 8 µg/mL | MIC alone ([2]; isolate EC-10): 8 µg/mL | MIC combination ([2]; isolate EC-10): 4 µg/mL | MIC alone [1, 21]: 128 µg/mL | MIC combination [1, 21]: 8 µg/mL | MIC alone [1, 22]: 128 µg/mL | MIC combination [1, 22]: 16 µg/mL | MIC alone [1, 23]: 512 µg/mL | MIC combination [1, 23]: 128 µg/mL | MIC alone [1, 24]: 512 µg/mL | MIC combination [1, 24]: 512 µg/mL | MIC alone [1, 25]: 512 µg/mL | MIC combination [1, 25]: 4 µg/mL | MIC alone [1, 26]: 256 µg/mL | MIC combination [1, 26]: 16 µg/mL | MIC alone [1, 27]: 1020 µg/mL | MIC combination [1, 27]: 512 µg/mL | MIC alone [1, 28]: 512 µg/mL | MIC combination [1, 28]: 64 µg/mL | MIC alone [1, 29]: 512 µg/mL | MIC combination [1, 29]: 128 µg/mL | MIC alone [1, 30]: 512 µg/mL | MIC combination [1, 30]: 32 µg/mL

— publication PMC10653547, “Synergistic effect of two antimicrobial peptides, BP203 and MAP-0403 J-2 with conventional antibiotics against colistin-resistant Escherichia coli and Klebsiella pneumoniae clinical isolates” (PLOS ONE, 2023)
